This is an account of results in patent US10822431B2, “Fucoidan preparation, zinc-bound fucoidan and use thereof” (South Product Ltd., priority 2015, dated 2020).

The test system of the series is Hep G2 cells. Nature of the series: Cytotoxicity test using Hep G2 cells (MTT assay). It is filed as cell-based. The following applies: up to 500 μg/ml; zinc only as a comparison. As to the method:
Cytotoxicity Test Using Hep G2 Cells:
[…] P. (2000). “Cytotoxicity and Viability Assays”. In Masters, J. R. W. Animal Cell Culture: A Practical Approach, 3rd) using Hep G2 cells were conducted on these preparations.
On the technique in general: Tetrazolium assays rely on reduction of a dye to a coloured formazan, in cell work by metabolically active cells.

Regarding `[Zn]` [zinc], the “Cytotoxicity of Hep G2 cells” value is recorded as “no cytotoxicity of Hep G2 cells was confirmed”.
